Experiment: xn = mol fraction of the nth substance listed
Details: 100 kPa

O=S(=O)([N-]S(=O)(=O)C(F)(F)F)C(F)(F)F.[Li+] + OCCO
Details | electrical conductivity, 303 K [S/m] | electrical conductivity, 318.1 K [S/m] | electrical conductivity, 333 K [S/m] | viscosity, 303 K [mPa·s] | viscosity, 318.1 K [mPa·s] | viscosity, 333 K [mPa·s]
x1 = 0.143 | 0.129 | 0.296 | 0.516 | 18.14 | 12.79 | 8.55
x1 = 0.167 | 0.275 | 0.604 | 0.928 | 19.25 | 13.57 | 8.71
x1 = 0.2 | 0.305 | 0.738 | 1.2 | 21.4 | 14.53 | 10.21
x1 = 0.25 | 0.291 | 0.623 | 1.07 | 23.79 | 16.35 | 10.61
x1 = 0.333 | 0.281 | 0.559 | 0.88 | 30.24 | 18.69 | 11.02
x1 = 0.5 | 0.275 | 0.534 | – | 58.8 | 35.26 | –

OCCO + O=S(=O)([N-]S(=O)(=O)C(F)(F)F)C(F)(F)F.[Li+]
x2 = 0
Details | viscosity [mPa·s]
303 K | 13.53
318.1 K | 9.59
333 K | 7.47

— a compilation of properties of binary mixtures (doi:10.1016/j.molliq.2020.114495)
